Source: PMC5237291, “Sigma-2 receptor agonist derivatives of 1-Cyclohexyl-4-[3-(5-methoxy-1,2,3,4-tetrahydronaphthalen-1-yl)propyl]piperazine (PB28) induce cell death via mitochondrial superoxide production and caspase activation in pancreatic cancer” (BMC Cancer, 2017)

Tested on: Panc02 tumors
Assay: In vivo tumor growth and survival, Panc02 tumors in C57BL/6 mice
Details: Panc02 s.c. in female C57BL/6; i.p. daily for two weeks (gemcitabine once weekly); vehicle mean = 924 mm^3
Method: In this pre-clinical model, we utilized the Panc02 cell line, which is weakly immunogenic in C57BL/6 mice and aggressive with a subcutaneous inoculum of 1 × 10^5 cells being lethal within 6–8 weeks. In vivo studies with mice were performed to compare the effect of sigma-2 ligands with gemcitabine. Mice treated with vehicle alone (a mixture of 5% DMSO, 5% EtOH, and 10% Cremophor in H2O) served as the control cohort. Female C57BL/6 mice (10 weeks old, National Cancer Institute Laboratories) were injected in the right flank with 200 μL of a single-cell suspension of Panc02 cells in non-supplemented RPMI medium (1 × 10^6 cells per mouse). Treatment began when the mean tumor diameter was ~ 5 mm. […] Tumors were measured three times weekly in two dimensions with a digital caliper, and tumor volumes were calculated by the standard formula of Tumor Volume = Length x Width^2 × 0.5. All mice were euthanized when tumors reached a diameter of 15 mm or had ulcerated.

Structure (SMILES): Nc1ccn([C@@H]2O[C@H](CO)[C@@H](O)C2(F)F)c(=O)n1 [gemcitabine, Gemcitabine, reference compound]
- Mean tumor volume following conclusion of treatment: 395 mm^3
